In patent US20120269815A1, “NEUROTROPHINS AND USES THEREOF” (Regents of the University of Minnesota, priority 2008, published 2012) one finds food consumption and shock sensitization data, which are given here for one sequence.

The nature of experiment [1]: Food consumption after ICV TUF1 peptide infusion. The class given is in vivo. The note with it: rat, ICV administration. The procedure:
(§1) a) Intra-cerebroventricular (ICV) Cannulation Male Sprague-Dawley rats weighing 250-400 grams were anesthetized with ketamine (100 mg/kg) and xylazine (7 mg/kg) and placed in a stereotaxic device (David Kopf Instruments Corp., Tunjunga, Calif.) using atraumatic ear bars. An incision of the skin overlying the skull was made and anchor screws were inserted into the skull. Burr holes were drilled to allow the guide cannula to pass into the brain. The guide cannula (22-gauge, C313G; Plastics One, Roanoke, Va.) was placed at 0 mm posterior, 1.2 mm lateral and 3.5 mm ventral to bregma. The cannula was affixed using epoxy glue (Loctite 444; McMaster-Carr, Chicago, Ill.) followed by dental acrylic (Hygienic perm reline & repair resin, Type II, Class I; Henry Schein, Inc., Melville, N.Y.). The cannula was sealed and kept open by insertion of a ‘dummy’ cannula.
b) TUF1 Peptide Infusion 0 μg, 1 μg, or 10 μg TUF1 peptide diluted in artificial cerebrospinal fluid (aCSF, Harvard Apparatus, Holliston, Mass.) was injected into the brain through the in-dwelling cannulae immediately prior to behavioral measurement (described below). […]
Food intake, in grams, was measured by weighing food in the hopper daily for the two days prior to drug infusion and for the drug infusion days, and calculating the amount eaten by subtracting each day's food weight from that of the previous day.

A short description of experiment [2]: Shock sensitization of startle after ICV TUF1 peptide infusion. The class given is in vivo, rat. The note with it: adult male rats, 1.0 μg or 10 μg ICV. The procedure: as §1, with “cannula. […]” for “cannula.”
For fear potentiated startle, shock sensitization, and prepulse inhibition testing, animals were trained and tested in four identical 7.5 cm×9 cm×17 cm stabilimeter devices. […] Shock intensity was measured with a 1-kΩ resistor across a differential channel of an oscilloscope in series with a 100-kΩ resistor connected between two floor bars in each cage. Current was defined as the RMS voltage across the resistor and calculated in mA as 0.707×0.5 ×peak-to-peak voltage. […]

No end group written: not given here.

Turning to AYKSYVRALPLL [TUF1[43-54]], in experiment [1], the food consumption result is “influences food consumption”. In addition, the shock sensitization entry in experiment [2] is recorded as “No effect”.
